# Like-named read-outs stand apart in the source and are kept apart here.
# Legend:
# [1] = tested on: cultured trabecular-meshwork cells; details: cited from earlier work
# [2] = tested on: human trabecular meshwork cells; experiment: Induction of PGE2 synthesis in cultured human trabecular meshwork cells (14C-arachidonic acid, TLC); type: cell-based; details: 10 ng/ml each; for % of total CPM in PGE2 fraction (mean ± std dev): 17 hours then 14C-arachidonic acid for 4 hours
# Protocol: Primary human trabecular meshwork cells were grown in culture according to the method of Weinreb, et al. from a donor. Cells (passage 5) were seeded into 12-well plates and grown until they just reached confluency, with culture medium replacement every 3-4 days. Triplicate wells of cells were then exposed to interleukin-1 beta (10 ng/ml final), TGF-beta 1 (10 ng/ml final) or both in 1 ml of Ham's F-10 Nutrient Mixture (Gibco-BRL), containing 2 mM L-glutamine and 0.4 mg/ml bovine serum albumin (Sigma Chemical Co.). Control cells received medium devoid of IL-1β and TGF-β1. Cells were then incubated in a 37° C., 5% CO2, humidified incubator for 17 hours. ^14C-arachidonic acid (300,000 dpm) was added to each well, and the cells were returned to the incubator for an additional 4 hours. A modified Bligh & Dyer lipid extraction [Can. J. Biochem. Physiol. 37,911 (1959)] was then performed on the cells and supernatants. An aliquot of the extracted samples and fatty acid standards were spotted on a moderate hardness silica gel thin-layer chromatography plate (Alltech K5, 20×20 cm, 250 μm thick). The plate was developed in prostaglandin TLC solvent (11:5:2:10 ethyl acetate: 2,2,4-trimethylpentane: acetic acid: distilled water), air-dried, and standard bands were visualized with vaporization of iodine crystals. Each lane on the plate was divided into segments based upon the position of the standards, and each segment was scraped off of the plate with a razor blade into a glass scintillation vial. Opti-fluor scintillation cocktail (Packard) was added to each vial, and the samples were counted on a beta scintillation counter. The amount of each fraction was calculated as a percentage of total counts per minute (CPM) from that sample.
# [3] = tested on: human corneal fibroblasts; experiment: Induction of prostaglandin synthesis in cultured human corneal fibroblasts (enzyme immunoassay of conditioned medium); type: cell-based; details: 10 ng/ml
# Protocol: Primary human corneal fibroblasts were grown in culture from freshly denuded corneal stromal tissue from a donor. Cells (passage 4) were seeded into 12-well plates and grown to 80% confluency. Selected cells were then exposed to Interleukin-1 alpha (10 ng/ml final) in Ham's F-10 Nutrient mixture (HyClone Corporation) containing 10% fetal bovine serum by medium replacement in the wells. Control cells received medium devoid of this inflammatory cytokine. Cells were then incubated in a 37° C., 5% CO2, humidified incubator for 24 hours. Conditioned medium was then removed, centrifuged to remove any cellular debris (3 minutes at 2600 rpm and 4° C.), and analyzed for PGE2 and PGF2α, levels in the medium using specific enzyme immunoassay kits (Cayman Scientific). Cells in each well were counted, and prostaglandin levels normalized to the cell count for the respective wells.
# fibroblasts = details: cited from earlier work
# [4] = 24 hours, conditioned medium, normalized to cell count
compound,measurement,setting,value
CCCCC/C=C\C/C=C\C/C=C\C/C=C\CCCC(=O)O [arachidonic acid],effect on PGE2 synthesis,[1],stimulate PGE2 synthesis
NCCc1c[nH]cn1 [histamine],effect on PGE2 synthesis,[1],stimulate PGE2 synthesis
CCCCC/C=C\C\C=C/C=C/C=C/[C@@H](SC[C@H](NC(=O)CC[C@H](N)C(=O)O)C(=O)NCC(=O)O)[C@@H](O)CCCC(=O)O [leukotriene C4],effect on PGE2 synthesis,[1],stimulate PGE2 synthesis
CNc1ccc2oc(C[C@H]3O[C@@]4(CC[C@H]3C)O[C@H]([C@H](C)C(=O)c3ccc[nH]3)[C@H](C)C[C@H]4C)nc2c1C(=O)O [lonophore A23187],effect on PGE2 synthesis,[1],stimulate PGE2 synthesis
"IL-1β: interleukin-1 beta, prostaglandin upregulating agent (Genzyme)",increase in PGE2 synthesis over non-treated control,[2],440%
same,% of total CPM in PGE2 fraction (mean ± std dev),[2],9.34 ± 0.70%
INTERLEUKIN-1α: inflammatory cytokine Interleukin-1 alpha,"PGE2 produced per 100,000 cells in 24 hours (mean ± std dev)",[3]; [4],"48,736 ± 3597 PICOGRAMS"
same,"PGF2α produced per 100,000 cells in 24 hours (mean ± std dev)",[3]; [4],1704 ± 367 PICOGRAMS
same,elevation of the level of PGE2,[3]; versus unstimulated cells,> 47 fold
same,elevation of the level of PGF2α,[3]; versus unstimulated cells,> 3 fold
PDGF,stimulation of PGE2 synthesis,fibroblasts,10-15 fold
same,stimulation of PGE2 synthesis,fibroblasts; in the presence of exogenous arachidonic acid,28 fold
"TGF-β1: Transforming Growth Factor beta 1, prostaglandin upregulating agent",increase in PGE2 synthesis over non-treated control,[2],74%
same,% of total CPM in PGE2 fraction (mean ± std dev),[2],3.01 ± 0.38%

# From patent publication US6376541B1, “Upregulation of endogenous prostaglandins to lower intraocular pressure” (Alcon Manufacturing, Ltd., priority 1998, dated 2002)
